Source: patent US9365614B2, “IAP BIR domain binding compounds” (priority 2006, dated 2016)
Like-named read-outs stand apart in the source and are kept apart here. *1 amine or outer side, *2 acyl side, *3 side chain or, on linkers, in order; H or OH if unused. Where a SMILES comes first, the peptide text is derived from it. Bridges are numbered along the chain shown (N, C = ends). Roman numbers before positions name the chains, in order. [ ]: non-standard residue; d: D form. The star is where a group is joined. cisHyp = O=C(O)[C@@H]1C[C@H](O)CN1; pXylylene = c1cc(C[*:2])ccc1C[*:1]; NHPhenethyl = c1ccc(CCN*)cc1; Tle = CC(C)(C)[C@H](N)C(=O)O; NMeA = CN[C@@H](C)C(=O)O

Tested on: SKOV-3 cells
Experiment: Survival MTT assay, SKOV-3
Format: cell-based
Conditions: Homo sapiens, SK-OV-3, 72 h
Experimental: One day prior the treatment with compound, 2000 to 4000 cells per well were plated in a tissue culture treated 96 well format dish with 100 ul of media and incubated at 37° C., 5% CO2. On the day of compound treatment, compounds were diluted with cell culture media to a working stock concentration of 2×. 100 uL of diluted compound were then added to each well. The treated plate was incubated for 72 h at 37° C., 5% CO2. Upon incubation, the cell viability was assessed as followed 20 uL of MTT reagent at 5 mg/ml were added per well to cell plate. The plate was incubated for 2 h at 37° C. in presence of 5% CO2. The supernatant was then removed from the plate and 100 uL of isopropanol were added. The absorbance was measured in a TECAN spectrophotometer at 570 nm. The percentage of viability was expressed in percentage of the signal obtained with non treated cells.

Compound: CN[C@@H](C)C(=O)N[C@H](C(=O)N1C[C@@H](OCc2ccc(CO[C@H]3C[C@@H](C(=O)NCCc4ccccc4)N(C(=O)[C@@H](NC(=O)[C@H](C)NC)C(C)(C)C)C3)cc2)C[C@H]1C(=O)NCCc1ccccc1)C(C)(C)C [Compound 29] (I: H-[NMeA]-[Tle]-[cisHyp]-NHPhenethyl / II: H-[NMeA]-[Tle]-[cisHyp]-NHPhenethyl; linker I:3-II:3 via pXylylene)
- EC50 (read-out: EC50 against SKOV3): 88 nM
- EC50 (read-out: SKOV-3 EC50): < 250 nM

Compound: CN[C@@H](C)C(=O)N[C@H](C(=O)N1C[C@@H](NC(=O)c2ccc(C(=O)N[C@H]3C[C@@H](C(=O)NC[C@H](C)c4ccccc4)N(C(=O)[C@@H](NC(=O)[C@H](C)NC)C(C)(C)C)C3)cc2)C[C@H]1C(=O)NC[C@@H](C)c1ccccc1)C(C)(C)C [Compound 21]
- EC50 (read-out: SKOV-3 EC50): < 50 nM

Compound: CN[C@@H](C)C(=O)N[C@H](C(=O)N1C[C@@H](NC(=O)c2ccc(C(=O)N[C@H]3C[C@@H](C(=O)NC4c5ccccc5-c5ccccc54)N(C(=O)[C@@H](NC(=O)[C@H](C)NC)C(C)(C)C)C3)cc2)C[C@H]1C(=O)NC1c2ccccc2-c2ccccc21)C(C)(C)C [Compound 47]
- EC50 (read-out: SKOV-3 EC50): < 50 nM

Compound: CN[C@@H](C)C(=O)N[C@H](C(=O)N1C[C@@H](NC(=O)c2ccc(C(=O)N[C@H]3C[C@@H](C(=O)NC(c4ccc(OC)cc4)c4ccc(OC)cc4)N(C(=O)[C@@H](NC(=O)[C@H](C)NC)C(C)(C)C)C3)cc2)C[C@H]1C(=O)NC(c1ccc(OC)cc1)c1ccc(OC)cc1)C(C)(C)C [Compound 51]
- EC50 (read-out: SKOV-3 EC50): < 250 nM

Compound: CN[C@@H](C)C(=O)N[C@H](C(=O)N1C[C@@H](NC(=O)c2ccc(C(=O)N[C@H]3C[C@@H](C(=O)N[C@@H]4CCCc5ccccc54)N(C(=O)[C@@H](NC(=O)[C@H](C)NC)C(C)(C)C)C3)cc2)C[C@H]1C(=O)N[C@@H]1CCCc2ccccc21)C(C)(C)C [Compound 55]
- EC50 (read-out: SKOV-3 EC50): < 50 nM

Compound: CN[C@@H](C)C(=O)N[C@H](C(=O)N1C[C@@H](NC(=O)c2ccc(C(=O)N[C@H]3C[C@@H](C(=O)N[C@@H]4CCCc5ccccc54)N(C(=O)[C@@H](NC(=O)[C@H](C)NC)C(C)(C)C)C3)cc2)C[C@H]1C(=O)NC1CCCc2ccccc21)C(C)(C)C (stereo partly drawn) [Compound 34]
- EC50 (read-out: SKOV-3 EC50): < 250 nM

Compound: CC[C@H](N)C(=O)N[C@H](C(=O)N1C[C@@H](NC(=O)c2ccc(C(=O)N[C@H]3C[C@@H](C(=O)N[C@@H]4CCCc5ccccc54)N(C(=O)[C@@H](NC(=O)[C@@H](N)CC)C(C)(C)C)C3)cc2)C[C@H]1C(=O)N[C@@H]1CCCc2ccccc21)C(C)(C)C [Compound 53]
- EC50 (read-out: SKOV-3 EC50): > 1000 nM

Compound: CN[C@@H](C)C(=O)N[C@H](C(=O)N1C[C@@H](NC(=O)c2ccc(C(=O)N[C@H]3C[C@@H](C(=O)OC)N(C(=O)[C@@H](NC(=O)[C@H](C)NC)C(C)(C)C)C3)cc2)C[C@H]1C(=O)OC)C(C)(C)C [Compound 18]
- EC50 (read-out: SKOV-3 EC50): > 1000 nM

Compound: CN[C@@H](C)C(=O)N[C@H](C(=O)N1C[C@@H](NC(=O)CNC(=O)C(=O)NCC(=O)N[C@H]2C[C@@H](C(=O)N[C@@H]3CCCc4ccccc43)N(C(=O)[C@@H](NC(=O)[C@H](C)NC)C(C)(C)C)C2)C[C@H]1C(=O)N[C@@H]1CCCc2ccccc21)C(C)(C)C [Compound 36]
- EC50 (read-out: SKOV-3 EC50): > 1000 nM

Compound: CN[C@@H](C)C(=O)N[C@H](C(=O)N1C[C@@H](NC(=O)c2cncc(C(=O)N[C@H]3C[C@@H](C(=O)N[C@@H]4CCCc5ccccc54)N(C(=O)[C@@H](NC(=O)[C@H](C)NC)C(C)(C)C)C3)c2)C[C@H]1C(=O)N[C@@H]1CCCc2ccccc21)C(C)(C)C [Compound 41]
- EC50 (read-out: SKOV-3 EC50): < 50 nM

Compound: CN[C@@H](C)C(=O)N[C@H](C(=O)N1C[C@@H](NC(=O)C2CCC(C(=O)N[C@H]3C[C@@H](C(=O)N[C@@H]4CCCc5ccccc54)N(C(=O)[C@@H](NC(=O)[C@H](C)NC)C(C)(C)C)C3)CC2)C[C@H]1C(=O)N[C@@H]1CCCc2ccccc21)C(C)(C)C (stereo partly drawn) [Compound 52]
- EC50 (read-out: SKOV-3 EC50): < 50 nM

Compound: CN[C@@H](C)C(=O)N[C@H](C(=O)N1C[C@@H](NC(=O)c2ccc(C(=O)N[C@H]3C[C@@H](C(=O)N[C@H](CO)c4ccccc4)N(C(=O)[C@@H](NC(=O)[C@H](C)NC)C(C)(C)C)C3)cc2)C[C@H]1C(=O)N[C@H](CO)c1ccccc1)C(C)(C)C [Compound 59]
- EC50 (read-out: SKOV-3 EC50): < 250 nM

Compound: CN[C@@H](C)C(=O)N[C@H](C(=O)N1C[C@@H](NS(=O)(=O)c2ccc(-c3ccc(S(=O)(=O)N[C@H]4C[C@@H](C(=O)N[C@@H]5CCCc6ccccc65)N(C(=O)[C@@H](NC(=O)[C@H](C)NC)C(C)(C)C)C4)cc3)cc2)C[C@H]1C(=O)NC1CCCc2ccccc21)C(C)(C)C (stereo partly drawn) [Compound 39]
- EC50 (read-out: SKOV-3 EC50): < 50 nM

Compound: CN[C@@H](C)C(=O)N[C@H](C(=O)N1C[C@@H](NC(=O)c2ccc(C(=O)N[C@H]3C[C@@H](CN(CCc4ccccc4)S(C)(=O)=O)N(C(=O)[C@@H](NC(=O)[C@H](C)NC)C(C)(C)C)C3)cc2)C[C@H]1CN(CCc1ccccc1)S(C)(=O)=O)C(C)(C)C [Compound 26]
- EC50 (read-out: SKOV-3 EC50): < 250 nM

Compound: CN[C@@H](C)C(=O)N[C@H](C(=O)N1C[C@@H](CC(=O)c2ccc3ccc(C(=O)N[C@H]4C[C@@H](C(=O)N[C@@H]5CCCc6ccccc65)N(C(=O)[C@@H](NC(=O)[C@H](C)NC)C(C)(C)C)C4)cc3c2)C[C@H]1C(=O)N[C@@H]1CCCc2ccccc21)C(C)(C)C [Compound 57]
- EC50 (read-out: SKOV-3 EC50): < 50 nM

Compound: CN[C@@H](C)C(=O)N[C@H](C(=O)N1C[C@@H](NC(=O)CCCC(=O)N[C@H]2C[C@@H](C(=O)N[C@@H]3CCCc4ccccc43)N(C(=O)[C@@H](NC(=O)[C@H](C)NC)C(C)(C)C)C2)C[C@H]1C(=O)NC1CCCc2ccccc21)C(C)(C)C (stereo partly drawn) [Compound 14]
- EC50 (read-out: SKOV-3 EC50): < 50 nM

Compound: CN[C@@H](C)C(=O)N[C@H](C(=O)N1C[C@@H](NC(=O)Nc2ccc(NC(=O)N[C@H]3C[C@@H](C(=O)N[C@@H]4CCCc5ccccc54)N(C(=O)[C@@H](NC(=O)[C@H](C)NC)C(C)(C)C)C3)cc2)C[C@H]1C(=O)N[C@@H]1CCCc2ccccc21)C(C)(C)C [Compound 44]
- EC50 (read-out: SKOV-3 EC50): < 50 nM

Compound: CN[C@@H](C)C(=O)C[C@H](C(=O)N1C[C@@H](NC(=O)CCCCCCCC(=O)N[C@H]2C[C@@H](C(=O)N[C@@H]3CCCc4ccccc43)N(C(=O)[C@@H](NC(=O)[C@H](C)NC)C(C)(C)C)C2)C[C@H]1C(=O)N[C@@H]1CCCc2ccccc21)C(C)(C)C [Compound 12]
- EC50 (read-out: SKOV-3 EC50): < 50 nM

Compound: CN[C@@H](C)C(=O)N[C@H](C(=O)N1C[C@@H](NS(=O)(=O)c2ccc3cc(S(=O)(=O)N[C@H]4C[C@@H](C(=O)N[C@@H]5CCCc6ccccc65)N(C(=O)[C@@H](NC(=O)[C@H](C)NC)C(C)(C)C)C4)ccc3c2)C[C@H]1C(=O)N[C@@H]1CCCc2ccccc21)C(C)(C)C [Compound 56]
- EC50 (read-out: SKOV-3 EC50): < 50 nM

Compound: CN[C@@H](C)C(=O)N[C@H](C(=O)N1C[C@@H](NC(=O)c2ccc(C(=O)N[C@H]3C[C@@H](C(=O)NC(c4ccccc4)c4ccccc4)N(C(=O)[C@@H](NC(=O)[C@H](C)NC)C(C)(C)C)C3)cc2)C[C@H]1C(=O)NC(c1ccccc1)c1ccccc1)C(C)(C)C [Compound 24]
- EC50 (read-out: SKOV-3 EC50): < 50 nM

Compound: CN[C@@H](C)C(=O)N[C@H](C(=O)N1C[C@@H](NC(=O)CNC(=O)c2ccc(C(=O)NCC(=O)N[C@H]3C[C@@H](C(=O)N[C@@H]4CCCc5ccccc54)N(C(=O)[C@@H](NC(=O)[C@H](C)NC)C(C)(C)C)C3)cc2)C[C@H]1C(=O)N[C@@H]1CCCc2ccccc21)C(C)(C)C [Compound 35]
- EC50 (read-out: SKOV-3 EC50): < 250 nM

Compound: CN[C@@H](C)C(=O)N[C@H](C(=O)N1C[C@@H](OCc2ccc(CO[C@H]3C[C@@H](C(=O)N[C@@H]4CCCc5ccccc54)N(C(=O)[C@@H](NC(=O)[C@H](C)NC)C(C)(C)C)C3)cc2)C[C@H]1C(=O)N[C@@H]1CCCc2ccccc21)C(C)(C)C [Compound 17]
- EC50 (read-out: SKOV-3 EC50): < 50 nM

Compound: CN[C@@H](C)C(=O)N[C@H](C(=O)N1C[C@@H](NC(=O)Cc2ccc(CC(=O)N[C@H]3C[C@@H](C(=O)N[C@@H]4CCCc5ccccc54)N(C(=O)[C@@H](NC(=O)[C@H](C)NC)C(C)(C)C)C3)cc2)C[C@H]1C(=O)N[C@@H]1CCCc2ccccc21)C(C)(C)C [Compound 15]
- EC50 (read-out: SKOV-3 EC50): < 50 nM

Compound: CN[C@@H](C)C(=O)N[C@H](C(=O)N1C[C@@H](NC(=O)c2ccc(C(=O)N[C@H]3C[C@@H](C(=O)NCc4ccccc4)N(C(=O)[C@@H](NC(=O)[C@H](C)NC)C(C)(C)C)C3)cc2)C[C@H]1C(=O)NCc1ccccc1)C(C)(C)C [Compound 46]
- EC50 (read-out: SKOV-3 EC50): < 250 nM

Compound: CN[C@@H](C)C(=O)N[C@H](C(=O)N1C[C@@H](NC(=O)c2ccc(C(=O)N[C@H]3C[C@@H](C(=O)N[C@H](C)c4ccccc4)N(C(=O)[C@@H](NC(=O)[C@H](C)NC)C(C)(C)C)C3)cc2)C[C@H]1C(=O)N[C@H](C)c1ccccc1)C(C)(C)C [Compound 49]
- EC50 (read-out: SKOV-3 EC50): < 50 nM

Compound: CN[C@@H](C)C(=O)N[C@H](C(=O)N1C[C@@H](NC(=O)CNC(=O)c2ccc(-c3ccc(C(=O)NCC(=O)N[C@H]4C[C@@H](C(=O)N[C@@H]5CCCc6ccccc65)N(C(=O)[C@@H](NC(=O)[C@H](C)NC)C(C)(C)C)C4)cc3)cc2)C[C@H]1C(=O)N[C@@H]1CCCc2ccccc21)C(C)(C)C [Compound 38]
- EC50 (read-out: SKOV-3 EC50): < 250 nM

Compound: CN[C@@H](C)C(=O)N[C@H](C(=O)N1C[C@@H](NC(=O)c2ccc(C(=O)N[C@H]3C[C@@H](C(=O)N[C@@H]4CCCc5ccccc54)N(C(=O)[C@@H](NC(=O)[C@H](C)NC)C(C)(C)C)C3)cc2)C[C@H]1C(=O)N[C@H]1CCCc2ccccc21)C(C)(C)C [Compound 23]
- EC50 (read-out: SKOV-3 EC50): < 50 nM

Compound: CN[C@@H](C)C(=O)N[C@H](C(=O)N1CC(NC(=O)CCCCCC(=O)N[C@H]2C[C@@H](C(=O)N[C@@H]3CCCc4ccccc43)N(C(=O)[C@@H](NC(=O)[C@H](C)NC)C(C)(C)C)C2)C[C@H]1C(=O)NC1CCCc2ccccc21)C(C)(C)C (stereo partly drawn) [Compound 13]
- EC50 (read-out: SKOV-3 EC50): < 50 nM

Compound: CN[C@@H](C)C(=O)N[C@H](C(=O)N1C[C@@H](NC(=O)c2cccc(C(=O)N[C@H]3C[C@@H](C(=O)N[C@@H]4CCCc5ccccc54)N(C(=O)[C@@H](NC(=O)[C@H](C)NC)C(C)(C)C)C3)n2)C[C@H]1C(=O)N[C@@H]1CCCc2ccccc21)C(C)(C)C [Compound 43]
- EC50 (read-out: SKOV-3 EC50): < 250 nM
